Drawing on patent US10149876B2, “Tripterygium wilfordii extracts to overcome chemotherapy resistance” (WESTERN UNIVERSITY OF HEALTH SCIENCES, priority 2012, dated 2018), this text covers IC50 for one compound.

Each structure is given as a SMILES string. Values joined by “and” are separate entries in the source; they are usually repeats but may differ in a detail not shown here. Equal values may be shown once. Read-outs that look alike come from different tables or passages of the source.

Experiment [1] has as its system K562/Dox cells. Briefly: SRB cell viability assay, daunorubicin-resistant K562/Dox cells. Format: cell-based, human. The conditions noted are these: Homo sapiens.
Experiment [2] concerns K562 cells. Briefly: SRB cell viability assay, daunorubicin-sensitive K562 cells. The format is cell-based, human. The conditions noted are these: Homo sapiens, K562, read-out: IC50 of drug when cells treated with drug only. Here is the method: Cell culture of the above cell lines was performed as described in Example 2, except that 5,000, rather than 3,000 cells were plated per well for the K562, K562/Dox, BT474, SkBr3 lines.
Table 17 also contains the serially-diluted concentrations of drugs that each cell line was tested against.
Table 36 reports the cell viability data relating to pre-treatment with LTG-E prior to daunorubicin treatment. Table 37 reports control data obtained from cells that were not pre-treated with LGT-E prior to daunorubicin treatment. FIG. 15 summarizes the data of Tables 36 and 37 in a graphical format.

One may read the IC50 as the midpoint of a concentration-inhibition curve. For the compound `COc1cccc2c1C(=O)c1c(O)c3c(c(O)c1C2=O)C[C@@](O)(C(C)=O)C[C@@H]3O[C@H]1C[C@H](N)[C@H](O)[C@H](C)O1` [daunorubicin], the IC50 was 6.53 µM and 3.45 µg/mL in experiment [1] (K562, read-out: IC50 of drug when cells pre-treated with Chemosensitizing Agent before drug treatment); 32.6 µM and 17.2 µg/mL in experiment [1] (K562, read-out: IC50 of drug when cells treated with drug only); 1.05 µM and 0.55 µg/mL in experiment [2].
